Measured values reported in patent publication US7759345B2, “Antitumoral derivatives of ET-743” (priority 2001, dated 2010).

How the values were obtained:
SK-MEL-28 = experiment: Inhibition of cells growth by colorimetric assay (SRB), SK-MEL-28; type: cell-based; conditions: SRB, 48 hours exposure; for GI50 / CC50: Homo sapiens, SK-MEL-28, 48 h; for GI50 / MEL-28 TGI: MEL-28; for GI50: read-out: MEL-28 GI50; for CC50: read-out: MEL-28 LC50, MEL-28
Method in brief: (§1)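 Sulforhodamine B protein-stain readout (490 nm) after 48 h drug exposure, with GI, TGI and LC parameters calculated from triplicate means. Cells seeded at 5×10^3 per well, allowed 18 h drug-free attachment; dose range 10 to 10^−8 μg/ml, vehicle DMSO/EtOH/PBS (0.5:0.5:99).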

HMEC1 = experiment: Inhibition of cells growth by colorimetric assay (SRB), HMEC1; type: cell-based; conditions: SRB, 48 hours exposure; for GI50 / LC50: Homo sapiens, HMEC-1, 48 h; for HMEC-1 TGI / GI50: HMEC-1; for GI50: read-out: HMEC-1 GI50; for LC50: read-out: HMEC-1 LC50, HMEC-1
Method in brief: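 Human cancer and endothelial lines are seeded at 5×10^3 cells per well and, after 18 h, treated for 48 h with compound dissolved in DMSO/EtOH/PBS (0.5:0.5:99) at 10 to 10^−8 μg/ml. Cell mass is quantified by SRB staining (OD 490 nm), and growth inhibition, total growth inhibition and cell kill are calculated from triplicate wells.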

LoVo-Dox = experiment: Inhibition of cells growth by colorimetric assay (SRB), LoVo-Dox; type: cell-based; conditions: SRB, 48 hours exposure; for GI50 / CC50: Homo sapiens, 48 h; for GI50 / LOVO-DOX TGI: LOVO-DOX; for GI50: read-out: LOVO-DOX GI50; for CC50: read-out: LOVO-DOX LC50, LOVO-DOX
Method in brief: as §1

SK-OV-3 = experiment: Inhibition of cells growth by colorimetric assay (SRB), SK-OV-3; type: cell-based; conditions: SRB, 48 hours exposure; for GI50 / LC50: Homo sapiens, SK-OV-3, 48 h; for GI50 / SK-OV3 TGI: SK-OV3; for GI50: read-out: SK-OV3 GI50; for LC50: read-out: SK-OV3 LC50, SK-OV3
Method in brief: as §1

K-562 = experiment: Inhibition of cells growth by colorimetric assay (SRB), K-562; type: cell-based; conditions: SRB, 48 hours exposure; for GI50 / LC50 (50% cell killing): Homo sapiens, K562, 48 h; for GI50 / K-562 TGI: K-562; for GI50: read-out: K-562 GI50; for LC50 (50% cell killing): read-out: K-562 LC50, K-562
Method in brief: as §1

DU-145 = experiment: Inhibition of cells growth by colorimetric assay (SRB), DU-145; type: cell-based; conditions: SRB, 48 hours exposure; for GI50 / CC50: Homo sapiens, DU-145, 48 h; for DU-145 TGI / GI50: DU-145; for GI50: read-out: DU-145 GI50; for CC50: read-out: DU-145 LC50, DU-145
Method in brief: as §1

SK-BR-3 = experiment: Inhibition of cells growth by colorimetric assay (SRB), SK-BR-3; type: cell-based; conditions: SRB, 48 hours exposure; for GI50 / CC50: Homo sapiens, SK-BR-3, 48 h; for GI50 / SK-BR3 TGI: SK-BR3; for GI50: read-out: SK-BR3 GI50; for CC50: read-out: SK-BR3 LC50, SK-BR3
Method in brief: as §1

HT-29 = experiment: Inhibition of cells growth by colorimetric assay (SRB), HT-29; type: cell-based; conditions: SRB, 48 hours exposure; for GI50 / LC50 (concentration for 50% cell killing): Homo sapiens, HT-29, 48 h; for HT-29 TGI / GI50: HT-29; for GI50: read-out: HT-29 GI50; for LC50 (concentration for 50% cell killing): read-out: HT-29 LC50, HT-29
Method in brief: as §1

PANC-1 = experiment: Inhibition of cells growth by colorimetric assay (SRB), PANC-1; type: cell-based; conditions: SRB, 48 hours exposure; for GI50 / LC50 (concentration for 50% net cell kill): Homo sapiens, PANC-1, 48 h; for GI50 / PANC-1 TGI: PANC-1; for GI50: read-out: PANC-1 GI50; for LC50 (concentration for 50% net cell kill): read-out: PANC-1 LC50, PANC-1
Method in brief: as §1

LNCaP = experiment: Inhibition of cells growth by colorimetric assay (SRB), LNCaP; type: cell-based; conditions: SRB, 48 hours exposure; for GI50 / CC50: Homo sapiens, LNCaP, 48 h; for GI50: read-out: LNCAP GI50, LNCAP; for CC50: read-out: LNCAP LC50, LNCAP
Method in brief: as §1

IGROV-1 = experiment: Inhibition of cells growth by colorimetric assay (SRB), IGROV-1; type: cell-based; conditions: SRB, 48 hours exposure; for GI50 / CC50: Homo sapiens, IGROV-1, 48 h; for GI50 / IGROV TGI: IGROV; for GI50: read-out: IGROV GI50; for CC50: read-out: IGROV LC50, IGROV
Method in brief: as §1

LoVo = experiment: Inhibition of cells growth by colorimetric assay (SRB), LoVo; type: cell-based; conditions: SRB, 48 hours exposure; for GI50 / LC50 (concentration for 50% cell killing): Homo sapiens, LoVo, 48 h; for GI50 / LOVO TGI: LOVO; for GI50: read-out: LOVO GI50; for LC50 (concentration for 50% cell killing): read-out: LOVO LC50, LOVO
Method in brief: as §1

IGROV-ET = experiment: Inhibition of cells growth by colorimetric assay (SRB), IGROV-ET; type: cell-based; conditions: SRB, 48 hours exposure; for GI50 / CC50: Homo sapiens, 48 h; for GI50 / IGROV-ET TGI: IGROV-ET; for GI50: read-out: IGROV-ET GI50; for CC50: read-out: IGROV-ET LC50, IGROV-ET
Method in brief: as §1

A-549 = experiment: Inhibition of cells growth by colorimetric assay (SRB), A-549; type: cell-based; conditions: SRB, 48 hours exposure; for GI50 / LC50 (concentration for 50% cell killing): Homo sapiens, A549, 48 h; for A-549 TGI / GI50: A-549; for GI50: read-out: A-549 GI50; for LC50 (concentration for 50% cell killing): read-out: A-549 LC50, A-549
Method in brief: as §1

Source text for Heart: (§2) Toxicity was asssessed by the methods reported in Toxicology in Vitro, 15 (2001) 571-577, J. Luber Narod et al.: “Evaluation of the use of in vitro methodolodies as tools for screening new compounds for potential in vivo toxicity”.
Source text for Kidney: as §2
Source text for Liver: as §2
Source text for Myelo: as §2
Source text for Skeletal: as §2

SMILES: COc1cc2c(cc1O)CCN(C)[C@]21CS[C@@H]2c3c(OC(C)=O)c(C)c4c(c3[C@H](COC1=O)N1C2[C@H]2c3c(cc(C)c(OC)c3O)C[C@@H]([C@@H]1O)N2C)OCO4 (stereo partly shown) [Compound 93]
- GI50 (SK-MEL-28): 0.281 nM
- CC50 (SK-MEL-28): 3.58 nM
- MEL-28 TGI (SK-MEL-28): 6.24E-10
- Toxicity Data Heart (Heart): 4.46E-08
- Toxicity Data Liver (Liver): 1.13E-08
- HMEC-1 TGI (HMEC1): 1.55E-10
- GI50 (HMEC1): 0.037 nM
- LC50 (HMEC1): 0.487 nM
- GI50 (LoVo-Dox): 7.71 nM
- CC50 (LoVo-Dox): 12900 nM
- LOVO-DOX TGI (LoVo-Dox): 9.87E-08
- GI50 (SK-OV-3): 0.409 nM
- LC50 (SK-OV-3): 12900 nM
- SK-OV3 TGI (SK-OV-3): 1.29E-09
- GI50 (K-562): 0.611 nM
- LC50 (50% cell killing) (K-562): 9540 nM
- K-562 TGI (K-562): 1.29E-08
- DU-145 TGI (DU-145): 6.30E-10
- GI50 (DU-145): 0.331 nM
- CC50 (DU-145): 1.29 nM
- GI50 (SK-BR-3): 0.445 nM
- CC50 (SK-BR-3): 9.5 nM
- SK-BR3 TGI (SK-BR-3): 1.96E-09
- HT-29 TGI (HT-29): 1.29E-08
- GI50 (HT-29): 0.635 nM
- LC50 (concentration for 50% cell killing) (HT-29): 12900 nM
- GI50 (PANC-1): 0.314 nM
- LC50 (concentration for 50% net cell kill) (PANC-1): 12900 nM
- PANC-1 TGI (PANC-1): 1.29E-09
- Toxicity Data Kidney (Kidney): 6.32E-08
- GI50 (LNCaP): 2.85 nM
- CC50 (LNCaP): 129 nM
- LNCAP TGI (LNCaP): 6.77E-09
- GI50 (IGROV-1): 0.214 nM
- CC50 (IGROV-1): 129 nM
- IGROV TGI (IGROV-1): 6.46E-10
- Toxicity Data Myelo (Myelo): 3.35E-09
- Toxicity Data Skeletal (Skeletal): 5.52E-10
- GI50 (LoVo): 0.768 nM
- LC50 (concentration for 50% cell killing) (LoVo): 12900 nM
- LOVO TGI (LoVo): 4.58E-09
- GI50 (IGROV-ET): 21.5 nM
- CC50 (IGROV-ET): 12900 nM
- IGROV-ET TGI (IGROV-ET): 1.31E-07
- A-549 TGI (A-549): 2.90E-09
- GI50 (A-549): 0.463 nM
- LC50 (concentration for 50% cell killing) (A-549): 12.9 nM

SMILES: COC1=C(C)C(=O)C2=C(C1=O)[C@@H]1C3[C@@H]4SC[C@]5(NCCc6cc(O)c(OC)cc65)C(=O)OC[C@@H](c5c6c(c(C)c(OC(C)=O)c54)OCO6)N3[C@@H](O)[C@H](C2)N1C (stereo partly shown) [Compound 101]
- GI50 (SK-MEL-28): 3.35 nM
- CC50 (SK-MEL-28): 26 nM
- MEL-28 TGI (SK-MEL-28): 7.02E-09
- Toxicity Data Heart (Heart): 7.67E-08
- Toxicity Data Liver (Liver): 5.40E-08
- HMEC-1 TGI (HMEC1): 1.17E-08
- GI50 (HMEC1): 3.05 nM
- LC50 (HMEC1): 12900 nM
- GI50 (LoVo-Dox): 251 nM
- CC50 (LoVo-Dox): 12900 nM
- LOVO-DOX TGI (LoVo-Dox): 9.29E-07
- GI50 (SK-OV-3): 4.49 nM
- LC50 (SK-OV-3): 12900 nM
- SK-OV3 TGI (SK-OV-3): 9.77E-09
- GI50 (K-562): 0.25 nM
- LC50 (50% cell killing) (K-562): 19.2 nM
- K-562 TGI (K-562): 6.20E-10
- DU-145 TGI (DU-145): 7.46E-09
- GI50 (DU-145): 3.74 nM
- CC50 (DU-145): 17.9 nM
- GI50 (SK-BR-3): 2.63 nM
- CC50 (SK-BR-3): 46.8 nM
- SK-BR3 TGI (SK-BR-3): 6.44E-09
- HT-29 TGI (HT-29): 1.03E-08
- GI50 (HT-29): 3.57 nM
- LC50 (concentration for 50% cell killing) (HT-29): 12900 nM
- GI50 (PANC-1): 5.66 nM
- LC50 (concentration for 50% net cell kill) (PANC-1): 1340 nM
- PANC-1 TGI (PANC-1): 2.27E-08
- Toxicity Data Kidney (Kidney): 3.17E-08
- GI50 (LNCaP): 2.5 nM
- CC50 (LNCaP): 7.71 nM
- LNCAP TGI (LNCaP): 4.40E-09
- GI50 (IGROV-1): 2.5 nM
- CC50 (IGROV-1): 10.7 nM
- IGROV TGI (IGROV-1): 5.17E-09
- Toxicity Data Myelo (Myelo): 1.96E-08
- Toxicity Data Skeletal (Skeletal): 3.40E-09
- GI50 (LoVo): 13.4 nM
- LC50 (concentration for 50% cell killing) (LoVo): 219 nM
- LOVO TGI (LoVo): 4.68E-08
- GI50 (IGROV-ET): 30.5 nM
- CC50 (IGROV-ET): 246 nM
- IGROV-ET TGI (IGROV-ET): 6.88E-08
- A-549 TGI (A-549): 6.52E-09
- GI50 (A-549): 3.69 nM
- LC50 (concentration for 50% cell killing) (A-549): 11.5 nM
